These results are taken from ChEMBL document CHEMBL1201862, “PubChem BioAssay data set” (2004).

Active and inactive are the calls of the source. Rule as the data show it, for most assays here: actives have a measured IC50 and inactives only a lower limit. Where only a bound is given, the exact number is not on record here.

Holding throughout (assay type): functional
Test [1] deals with T1, Mitochondrial peptide methionine sulfoxide reductase (Bos taurus, UniProt P54149).
T1 sequence (P54149 whole entry): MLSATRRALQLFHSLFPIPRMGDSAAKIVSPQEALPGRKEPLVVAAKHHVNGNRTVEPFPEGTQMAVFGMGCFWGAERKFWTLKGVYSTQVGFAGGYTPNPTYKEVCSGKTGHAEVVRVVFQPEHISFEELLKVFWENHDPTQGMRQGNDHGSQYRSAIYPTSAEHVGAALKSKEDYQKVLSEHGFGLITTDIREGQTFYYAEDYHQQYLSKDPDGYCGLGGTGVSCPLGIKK
Put plainly: Absorbance-based biochemical high throughput dose response assay for activators of Methionine sulfoxide reductase A (MsrA).

Test [2] in a line: M. tuberculosis H37Rv growth inhibitors, H37Rv strain (AID 1626).
Test [3] concerns the target Ras and Rab interactor 1/Tyrosine-protein kinase ABL1 (Homo sapiens, UniProt P00519+Q13671).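 Also: biochemical TR-FRET dose-response test measuring inhibition of binding between Rin1 and Abl proteins.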
Test [4] deals with T2, Sentrin-specific protease 6 (Homo sapiens, UniProt Q9GZR1).
T2 sequence (Q9GZR1 whole entry): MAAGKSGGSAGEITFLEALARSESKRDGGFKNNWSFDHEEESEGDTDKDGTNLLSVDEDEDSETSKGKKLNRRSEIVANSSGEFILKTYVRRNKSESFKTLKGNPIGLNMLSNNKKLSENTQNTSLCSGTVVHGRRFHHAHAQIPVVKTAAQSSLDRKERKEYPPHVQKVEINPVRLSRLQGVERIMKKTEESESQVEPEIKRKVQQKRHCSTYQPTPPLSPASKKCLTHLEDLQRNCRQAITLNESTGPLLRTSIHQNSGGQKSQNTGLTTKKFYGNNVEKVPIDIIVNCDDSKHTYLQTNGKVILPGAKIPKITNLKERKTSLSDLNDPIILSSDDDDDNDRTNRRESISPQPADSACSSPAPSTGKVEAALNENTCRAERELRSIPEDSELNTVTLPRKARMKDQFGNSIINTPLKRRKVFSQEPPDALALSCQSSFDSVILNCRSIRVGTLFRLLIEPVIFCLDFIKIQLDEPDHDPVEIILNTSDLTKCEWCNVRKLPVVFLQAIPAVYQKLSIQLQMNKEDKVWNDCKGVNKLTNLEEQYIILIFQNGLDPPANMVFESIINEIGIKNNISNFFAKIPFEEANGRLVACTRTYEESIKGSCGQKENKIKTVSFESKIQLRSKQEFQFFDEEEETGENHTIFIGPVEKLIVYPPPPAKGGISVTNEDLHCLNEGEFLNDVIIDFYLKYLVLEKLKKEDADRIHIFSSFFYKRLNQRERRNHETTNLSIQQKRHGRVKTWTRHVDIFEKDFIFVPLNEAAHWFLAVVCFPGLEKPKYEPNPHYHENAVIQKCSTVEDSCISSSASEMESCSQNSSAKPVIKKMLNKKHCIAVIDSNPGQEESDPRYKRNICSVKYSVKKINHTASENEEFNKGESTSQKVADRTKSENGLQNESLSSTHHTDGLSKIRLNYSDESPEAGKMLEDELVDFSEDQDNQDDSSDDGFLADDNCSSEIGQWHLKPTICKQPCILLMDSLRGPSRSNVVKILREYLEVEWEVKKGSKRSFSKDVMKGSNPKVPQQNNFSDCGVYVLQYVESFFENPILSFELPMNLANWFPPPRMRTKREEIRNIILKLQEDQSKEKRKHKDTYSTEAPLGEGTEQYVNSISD
The test is described as follows: SAR Analysis of small molecule inhibitors of Sentrin-specific protease 6 (SENP6) using a Luminescent assay. [Related pubchem assays (depositor defined):AID2582, AID2599].

The target in test [5] is T3, Sentrin-specific protease 7 (Homo sapiens, UniProt Q9BQF6).
T3 sequence (Q9BQF6 whole entry): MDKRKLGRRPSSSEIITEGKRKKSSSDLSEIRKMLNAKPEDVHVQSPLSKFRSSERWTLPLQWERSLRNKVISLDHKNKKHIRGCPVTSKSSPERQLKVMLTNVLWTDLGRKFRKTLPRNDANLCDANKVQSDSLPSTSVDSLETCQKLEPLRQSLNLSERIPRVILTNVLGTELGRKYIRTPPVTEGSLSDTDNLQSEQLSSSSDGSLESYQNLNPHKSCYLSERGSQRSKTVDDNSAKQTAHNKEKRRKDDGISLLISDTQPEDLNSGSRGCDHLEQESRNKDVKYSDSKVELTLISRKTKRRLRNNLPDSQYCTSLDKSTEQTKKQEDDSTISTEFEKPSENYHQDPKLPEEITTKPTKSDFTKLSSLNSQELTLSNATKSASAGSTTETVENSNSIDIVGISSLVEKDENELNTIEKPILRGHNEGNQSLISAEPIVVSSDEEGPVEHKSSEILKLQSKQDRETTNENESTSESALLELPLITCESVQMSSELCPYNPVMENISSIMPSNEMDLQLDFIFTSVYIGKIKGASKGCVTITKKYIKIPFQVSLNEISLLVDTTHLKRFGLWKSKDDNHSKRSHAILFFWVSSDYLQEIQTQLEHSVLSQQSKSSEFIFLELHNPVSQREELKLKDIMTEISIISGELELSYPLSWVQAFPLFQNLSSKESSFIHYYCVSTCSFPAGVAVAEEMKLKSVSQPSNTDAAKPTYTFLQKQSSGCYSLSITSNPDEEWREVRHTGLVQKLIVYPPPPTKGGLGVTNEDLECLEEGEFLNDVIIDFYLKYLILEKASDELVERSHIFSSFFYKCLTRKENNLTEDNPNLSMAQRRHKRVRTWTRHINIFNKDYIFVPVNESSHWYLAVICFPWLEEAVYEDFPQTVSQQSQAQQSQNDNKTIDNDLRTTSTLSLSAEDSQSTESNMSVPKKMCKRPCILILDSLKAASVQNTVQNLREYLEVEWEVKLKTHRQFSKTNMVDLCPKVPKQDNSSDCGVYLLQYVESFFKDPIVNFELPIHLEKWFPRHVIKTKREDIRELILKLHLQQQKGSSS
Put plainly: SENP7 protease inhibitors, SAR follow-up, biochemical, luminescence (AID 504497).

Test [6] addresses T4, Sentrin-specific protease 8 (Homo sapiens, UniProt Q96LD8).
T4 sequence (Q96LD8 whole entry): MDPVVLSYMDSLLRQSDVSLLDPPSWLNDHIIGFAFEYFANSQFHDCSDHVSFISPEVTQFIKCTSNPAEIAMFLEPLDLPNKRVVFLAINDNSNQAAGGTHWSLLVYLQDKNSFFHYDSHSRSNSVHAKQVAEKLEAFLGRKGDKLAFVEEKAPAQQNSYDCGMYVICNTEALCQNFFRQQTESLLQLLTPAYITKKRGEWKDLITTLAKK
Put plainly: SENP8 protease inhibitors, SAR follow-up, biochemical, luminescence (AID 504501).

Test [7] concerns the target T5, Caspase-3 (Homo sapiens, UniProt P42574).
T5 sequence (P42574 whole entry): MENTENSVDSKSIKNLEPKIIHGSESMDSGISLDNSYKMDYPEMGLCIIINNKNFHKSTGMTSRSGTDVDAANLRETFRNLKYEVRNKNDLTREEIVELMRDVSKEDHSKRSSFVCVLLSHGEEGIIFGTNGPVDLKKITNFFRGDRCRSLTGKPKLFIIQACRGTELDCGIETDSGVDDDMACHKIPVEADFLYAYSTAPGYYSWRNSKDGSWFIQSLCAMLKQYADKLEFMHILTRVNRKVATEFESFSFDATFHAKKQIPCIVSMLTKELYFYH
Put plainly: SAR Analysis of small molecule inhibitors of Sentrin-specific proteases (SENPs) using a Caspase-3 Selectivity assay. [Related pubchem assays (depositor defined):AID2540, AID2599, AID434973, AID489001].

The target in test [8] is T5, Caspase-3. Put plainly: caspase-3 inhibitors as off-family protease, SAR follow-up, selectivity assay for SENP protease inhibitor project, biochemical, luminescence, set 2 (AID 588599).
Test [9] addresses T3, Sentrin-specific protease 7. Put plainly: SENP7 protease inhibitors, SAR follow-up, biochemical, luminescence, set 2 (AID 588600).
Test [10] addresses T4, Sentrin-specific protease 8. The test is described as follows: SENP8 protease inhibitors, SAR follow-up, biochemical, luminescence, set 2 (AID 588601).
For test [11], the target named is T2, Sentrin-specific protease 6. The test is described as follows: SENP6 protease inhibitors, SAR follow-up, biochemical, luminescence, set 2 (AID 588598).
In test [12] the target is T6, Apoptotic protease-activating factor 1 (Homo sapiens, UniProt O14727).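 Also: caspase-3 cleavage of fluorogenic Rh110 DEVD substrate downstream of apoptosome activation.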
T6 sequence (O14727 whole entry): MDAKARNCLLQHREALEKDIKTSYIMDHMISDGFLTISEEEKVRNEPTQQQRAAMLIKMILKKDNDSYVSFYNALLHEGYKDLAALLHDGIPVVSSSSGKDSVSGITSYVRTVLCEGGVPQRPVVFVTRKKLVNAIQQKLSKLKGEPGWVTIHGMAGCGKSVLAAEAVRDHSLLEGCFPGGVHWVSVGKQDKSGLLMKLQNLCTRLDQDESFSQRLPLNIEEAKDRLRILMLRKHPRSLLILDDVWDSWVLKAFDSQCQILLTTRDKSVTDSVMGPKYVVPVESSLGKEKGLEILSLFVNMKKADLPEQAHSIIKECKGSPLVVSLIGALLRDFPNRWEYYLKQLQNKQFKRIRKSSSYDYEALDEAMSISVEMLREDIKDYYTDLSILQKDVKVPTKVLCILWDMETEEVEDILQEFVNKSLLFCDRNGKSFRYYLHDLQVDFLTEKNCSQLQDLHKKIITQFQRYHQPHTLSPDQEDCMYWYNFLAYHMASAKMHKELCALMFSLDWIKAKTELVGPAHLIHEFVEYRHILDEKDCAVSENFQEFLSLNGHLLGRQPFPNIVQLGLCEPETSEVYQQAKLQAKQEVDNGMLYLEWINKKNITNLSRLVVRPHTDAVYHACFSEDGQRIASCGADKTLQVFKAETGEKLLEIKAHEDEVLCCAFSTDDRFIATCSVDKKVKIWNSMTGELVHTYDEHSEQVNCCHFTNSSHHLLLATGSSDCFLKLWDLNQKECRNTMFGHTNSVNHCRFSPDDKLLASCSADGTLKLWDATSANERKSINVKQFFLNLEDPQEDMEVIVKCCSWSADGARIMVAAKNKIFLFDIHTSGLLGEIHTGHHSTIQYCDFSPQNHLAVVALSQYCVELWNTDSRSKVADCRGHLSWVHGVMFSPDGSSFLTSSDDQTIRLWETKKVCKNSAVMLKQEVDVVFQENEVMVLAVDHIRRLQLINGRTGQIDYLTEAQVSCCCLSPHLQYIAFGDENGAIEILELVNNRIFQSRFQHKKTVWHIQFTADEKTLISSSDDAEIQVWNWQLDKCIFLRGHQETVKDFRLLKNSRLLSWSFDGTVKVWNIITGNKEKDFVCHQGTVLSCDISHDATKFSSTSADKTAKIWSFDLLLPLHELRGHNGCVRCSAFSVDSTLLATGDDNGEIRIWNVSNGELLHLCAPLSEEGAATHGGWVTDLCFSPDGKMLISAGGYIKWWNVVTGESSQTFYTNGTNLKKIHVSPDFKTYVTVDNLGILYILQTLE
Put plainly: SAR analysis of small molecule Activators of Apaf-1 in a Fluorescent assay. Particulars: read-out: EC50_Mean.

The target in test [13] is Vascular endothelial growth factor receptor 2 (Homo sapiens, UniProt P35968).
Another test deals with Aurora kinase B (Homo sapiens, UniProt Q96GD4).
The target of another test is T7, Aurora kinase A (Homo sapiens, UniProt O14965).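 Also: value from the Navigating the Kinome kinase panel profiling, panel entry STK6.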
T7 sequence (O14965 whole entry): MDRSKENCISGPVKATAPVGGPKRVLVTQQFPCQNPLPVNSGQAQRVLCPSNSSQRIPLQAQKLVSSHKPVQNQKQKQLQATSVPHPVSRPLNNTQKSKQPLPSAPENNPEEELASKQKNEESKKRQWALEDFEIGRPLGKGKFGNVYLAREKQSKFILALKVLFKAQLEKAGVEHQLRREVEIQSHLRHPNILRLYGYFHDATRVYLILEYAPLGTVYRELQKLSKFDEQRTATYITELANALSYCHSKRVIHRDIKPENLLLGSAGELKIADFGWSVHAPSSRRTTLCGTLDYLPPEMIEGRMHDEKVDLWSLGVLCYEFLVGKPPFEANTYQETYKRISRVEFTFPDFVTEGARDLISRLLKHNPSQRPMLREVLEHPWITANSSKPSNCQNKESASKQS

Ras and Rab interactor 1/Tyrosine-protein kinase ABL1, sequence (P00519 whole entry): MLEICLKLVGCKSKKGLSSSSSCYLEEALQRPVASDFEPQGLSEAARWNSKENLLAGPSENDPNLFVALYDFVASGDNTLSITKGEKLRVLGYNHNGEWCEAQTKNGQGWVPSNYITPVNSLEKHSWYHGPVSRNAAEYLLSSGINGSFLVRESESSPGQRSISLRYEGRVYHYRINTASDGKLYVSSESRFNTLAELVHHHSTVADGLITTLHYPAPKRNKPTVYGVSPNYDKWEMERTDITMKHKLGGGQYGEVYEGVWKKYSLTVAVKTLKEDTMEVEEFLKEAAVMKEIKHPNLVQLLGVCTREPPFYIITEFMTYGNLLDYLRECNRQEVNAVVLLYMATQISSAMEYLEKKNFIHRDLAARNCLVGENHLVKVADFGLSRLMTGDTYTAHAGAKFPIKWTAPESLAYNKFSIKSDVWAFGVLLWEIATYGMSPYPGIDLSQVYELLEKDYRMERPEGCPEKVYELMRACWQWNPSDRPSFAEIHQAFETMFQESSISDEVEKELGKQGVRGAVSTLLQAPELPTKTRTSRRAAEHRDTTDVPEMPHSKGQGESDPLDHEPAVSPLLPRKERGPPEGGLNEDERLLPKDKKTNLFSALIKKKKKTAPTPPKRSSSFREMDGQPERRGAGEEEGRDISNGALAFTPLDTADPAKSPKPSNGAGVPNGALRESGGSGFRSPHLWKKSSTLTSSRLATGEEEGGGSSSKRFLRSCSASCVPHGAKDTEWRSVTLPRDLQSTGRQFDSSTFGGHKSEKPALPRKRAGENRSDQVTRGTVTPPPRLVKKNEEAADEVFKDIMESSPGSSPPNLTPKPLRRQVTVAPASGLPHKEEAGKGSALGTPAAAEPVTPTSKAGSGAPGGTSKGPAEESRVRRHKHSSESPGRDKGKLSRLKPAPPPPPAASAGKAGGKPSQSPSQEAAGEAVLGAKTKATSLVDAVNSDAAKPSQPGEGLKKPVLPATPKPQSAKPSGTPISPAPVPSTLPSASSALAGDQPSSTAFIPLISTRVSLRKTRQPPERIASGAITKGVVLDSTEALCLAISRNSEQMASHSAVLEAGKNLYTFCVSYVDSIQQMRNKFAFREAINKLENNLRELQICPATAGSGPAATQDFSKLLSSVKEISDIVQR
Ras and Rab interactor 1/Tyrosine-protein kinase ABL1, sequence (Q13671 whole entry): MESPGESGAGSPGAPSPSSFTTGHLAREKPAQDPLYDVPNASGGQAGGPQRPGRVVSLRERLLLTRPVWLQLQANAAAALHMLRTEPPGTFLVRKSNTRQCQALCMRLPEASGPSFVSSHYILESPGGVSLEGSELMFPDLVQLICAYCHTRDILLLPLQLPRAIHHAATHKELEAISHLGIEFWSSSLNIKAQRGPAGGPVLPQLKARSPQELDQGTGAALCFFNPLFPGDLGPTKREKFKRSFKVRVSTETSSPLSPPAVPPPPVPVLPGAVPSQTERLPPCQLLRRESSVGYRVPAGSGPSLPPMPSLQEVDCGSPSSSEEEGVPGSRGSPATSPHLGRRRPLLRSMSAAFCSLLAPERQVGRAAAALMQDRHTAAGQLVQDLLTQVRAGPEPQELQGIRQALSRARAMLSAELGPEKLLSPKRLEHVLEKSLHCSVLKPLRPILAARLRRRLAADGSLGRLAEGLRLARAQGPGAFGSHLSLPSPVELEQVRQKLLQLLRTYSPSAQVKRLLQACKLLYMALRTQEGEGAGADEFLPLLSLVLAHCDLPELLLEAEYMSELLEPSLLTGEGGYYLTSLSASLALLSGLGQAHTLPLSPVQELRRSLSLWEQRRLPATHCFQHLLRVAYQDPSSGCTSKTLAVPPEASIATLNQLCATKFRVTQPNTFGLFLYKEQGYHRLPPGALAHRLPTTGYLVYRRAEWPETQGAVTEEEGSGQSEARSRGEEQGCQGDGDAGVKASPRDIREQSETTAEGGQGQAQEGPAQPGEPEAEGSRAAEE
Aurora kinase B, sequence (Q96GD4 whole entry): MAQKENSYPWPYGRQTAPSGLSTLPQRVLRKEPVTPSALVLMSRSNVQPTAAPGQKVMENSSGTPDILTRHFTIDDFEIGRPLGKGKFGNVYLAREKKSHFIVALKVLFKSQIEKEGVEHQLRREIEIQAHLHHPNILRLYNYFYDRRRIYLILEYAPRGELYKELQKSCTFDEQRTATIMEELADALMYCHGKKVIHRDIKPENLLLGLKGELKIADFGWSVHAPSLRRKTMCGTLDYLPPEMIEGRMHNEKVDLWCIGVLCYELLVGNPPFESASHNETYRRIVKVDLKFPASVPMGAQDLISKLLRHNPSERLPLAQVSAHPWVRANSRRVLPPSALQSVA
Vascular endothelial growth factor receptor 2, sequence (P35968 whole entry): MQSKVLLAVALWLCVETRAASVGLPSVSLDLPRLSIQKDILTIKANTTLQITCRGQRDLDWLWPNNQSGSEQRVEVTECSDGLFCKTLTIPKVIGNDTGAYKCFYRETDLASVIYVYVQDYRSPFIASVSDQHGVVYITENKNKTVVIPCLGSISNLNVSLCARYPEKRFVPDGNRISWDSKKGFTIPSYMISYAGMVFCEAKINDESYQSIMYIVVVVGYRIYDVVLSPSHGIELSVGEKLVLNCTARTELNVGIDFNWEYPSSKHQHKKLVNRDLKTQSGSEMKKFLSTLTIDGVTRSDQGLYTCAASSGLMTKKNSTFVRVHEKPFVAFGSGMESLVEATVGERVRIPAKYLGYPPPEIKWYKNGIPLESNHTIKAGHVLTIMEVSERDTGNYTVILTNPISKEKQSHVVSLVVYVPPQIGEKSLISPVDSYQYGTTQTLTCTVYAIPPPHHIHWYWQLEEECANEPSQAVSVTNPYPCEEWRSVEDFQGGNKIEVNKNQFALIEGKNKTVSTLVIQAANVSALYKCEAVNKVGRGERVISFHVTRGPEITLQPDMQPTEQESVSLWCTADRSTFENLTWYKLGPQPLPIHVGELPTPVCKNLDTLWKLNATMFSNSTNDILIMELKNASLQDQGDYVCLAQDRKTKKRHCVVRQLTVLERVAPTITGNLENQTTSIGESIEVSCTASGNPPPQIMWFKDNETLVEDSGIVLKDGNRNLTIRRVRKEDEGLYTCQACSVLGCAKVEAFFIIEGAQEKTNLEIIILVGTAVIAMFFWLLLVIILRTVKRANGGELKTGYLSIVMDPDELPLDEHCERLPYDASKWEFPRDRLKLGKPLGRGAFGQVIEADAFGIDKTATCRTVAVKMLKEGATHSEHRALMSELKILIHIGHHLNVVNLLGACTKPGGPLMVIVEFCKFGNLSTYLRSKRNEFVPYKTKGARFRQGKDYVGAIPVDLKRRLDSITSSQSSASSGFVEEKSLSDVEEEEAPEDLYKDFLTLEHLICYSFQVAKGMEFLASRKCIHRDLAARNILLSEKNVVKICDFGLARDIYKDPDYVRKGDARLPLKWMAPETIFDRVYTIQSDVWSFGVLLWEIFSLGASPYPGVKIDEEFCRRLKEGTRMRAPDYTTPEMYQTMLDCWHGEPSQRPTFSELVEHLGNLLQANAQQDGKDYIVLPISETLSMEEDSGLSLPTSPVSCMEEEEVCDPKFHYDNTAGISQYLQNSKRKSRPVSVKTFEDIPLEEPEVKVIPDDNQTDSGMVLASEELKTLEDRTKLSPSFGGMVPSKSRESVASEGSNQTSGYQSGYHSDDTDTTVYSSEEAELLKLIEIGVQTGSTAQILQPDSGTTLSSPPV

For the compound `CCOc1ccc(NC(C(=O)Nc2cccc(C(C)=O)c2)c2ccccc2)cc1` (stereo not drawn), the EC50 in test [1] is > 104 µM (inactive). Further, the IC50 in test [2] is > 100 µM (active).
In the case of `CCC(C)(C)n1nnnc1C(c1cccnc1)N1CCCc2ccccc21` (stereo not drawn), the IC50 in test [3] was 6.9 µM (active).
On to `CN(C)S(=O)(=O)c1ccc2nc(NC(=O)c3c(F)cccc3F)sc2c1`, for which the IC50 (in test [4]; in [5]; in [6]; on Caspase-3 [7]) was > 99 µM (inactive) each time.
In the case of `O=C(Nc1nc2ccc(Cl)cc2s1)c1sccc1Cl`, the concentration for half-maximal inhibition (IC50) at Caspase-3 [8] was 0.755 µM (active); in test [9], 6.06 µM (active); in test [4] it was 0.78 µM (active); in [5], 0.91 µM (active); in [6], 0.77 µM (active); at Caspase-3 [7], 0.73 µM (active). Besides, the 50% inhibitory concentration (IC50) in test [10] was 9.04 µM (active); in [11] it was 15.4 µM (active).
As to `O=C(N/N=C\c1c[nH]c2ccccc12)c1cccs1`, the half-inhibitory concentration (IC50) on Caspase-3 [8] was 75.5 µM (active); in test [9], 34.4 µM (active); in test [10] it was 40.8 µM (active); in test [11], 43.3 µM (active).
In the case of `COc1cc(N2CC(C(=O)O)CC2=O)c(OC)cc1Cl` (stereo not drawn), in [12], the EC50 was > 100 µM (inactive).
For the compound `CCCS(=O)(=O)Nc1ccc2c(c1)C(=NO)c1ccccc1-2`, the Ki in test [13] was 1 µM (active); on Aurora kinase B, 0.01 µM (active); on Aurora kinase A, 2 µM (active).
